SMILES strings stand for the structures.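 Results reflect a 48-hour exposure of cells in 96-well plates to compound at five concentrations. GI50 = concentration required for 50% inhibition of growth.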 Activity calls are given as the source filed them. Cut-off read from the data, not from the text of the source: active = GI50 up to about 1.1 µM and inactive = higher.

Among the test systems are MDA-MB-231; SF-295; SN12C; SNB-19; BT-549; Hs-578T; 786-0; UACC-62; K562; SNB-75; MDA-MB-435; CCRF-CEM; U-251; HT-29; T47D; DU-145; HOP-92; SNB-78; LXFL 529.
Common to all, as to experiment: NCI anticancer screen, dose series, 48 h

For `C=C[C@H]1CN2CCc3c([nH]c4c([C@@H]5CCCN5C)c(O)ccc34)[C@@H]2C[C@@H]1C[C@H]1c2[nH]c3ccccc3c2CCN1C`, the GI50 with MDA-MB-231 is 1.63 µM (inactive); in the test with SF-295, 1.01 µM (active); in the test with SN12C it was 1.54 µM (inactive); with SNB-19, 1.3 µM (inactive); in the test on BT-549, 1.75 µM (inactive); with Hs-578T, 1.52 µM (inactive). Moreover, the GI50 is 0.437 µM (active) with 786-0; 1.68 µM (inactive) in the test on UACC-62; 0.255 µM (active) in the test on K562; 0.813 µM (active) with SNB-75; 1.48 µM (inactive) in the test on MDA-MB-435; 0.188 µM (active) in the test on CCRF-CEM. Also, the GI50 is 1.49 µM (inactive) with U-251; 1.4 µM (inactive) in the test with HT-29; 1.48 µM (inactive) in the test with T47D; 1.48 µM (inactive) in the test with DU-145; 1.19 µM (inactive) with HOP-92.
Consider `CC1CC2=Nc3ccccc3NC(c3ccccc3)C2=C(O)O1` (configuration not stated), for which the GI50 was > 100 µM (inactive) in the test on SN12C; > 100 µM (inactive) in the test on SNB-19; > 100 µM (inactive) with SNB-78; > 100 µM (inactive) with 786-0; 93.8 µM (inactive) with UACC-62; > 100 µM (inactive) in the test with K562. In addition, the GI50 with SNB-75, in the test on CCRF-CEM, with U-251, with HT-29 and in the test on LXFL 529 was > 100 µM (inactive) throughout.
As to `CCCCSCC(NC(=O)/C=C/c1c(C)[nH]c(=O)[nH]c1=O)C(=O)OC` (configuration not stated), the GI50 in the test with SF-295 is 101 µM (inactive); in the test with SN12C it was 37.8 µM (inactive); with SNB-19, 29 µM (inactive); in the test with SNB-78, 47 µM (inactive); in the test on UACC-62, 51.9 µM (inactive); in the test with K562, 44.1 µM (inactive). The GI50 in the test on SNB-75 is 55.5 µM (inactive); in the test on CCRF-CEM, 20 µM (inactive); in the test with U-251 it was 16.6 µM (inactive); in the test on HT-29 it was 102 µM (inactive); in the test with HOP-92, 36.1 µM (inactive).
With `Cc1ccc(C(=O)N/N=C(\N=N\c2cccc([N+](=O)[O-])c2)c2ccc(N(CCC#N)CCC#N)cc2C)cc1`, the GI50 with MDA-MB-231 was 30.5 µM (inactive); with SF-295, 26.9 µM (inactive); in the test with SN12C it was 46.6 µM (inactive); in the test with SNB-19, 53.7 µM (inactive); in the test with BT-549 it was 19.6 µM (inactive); in the test on Hs-578T it was 23.4 µM (inactive). Moreover, the GI50 in the test with 786-0 is 34.4 µM (inactive); in the test on UACC-62, 26.1 µM (inactive); in the test with K562, 22.8 µM (inactive); in the test on SNB-75, 21.1 µM (inactive); in the test with MDA-MB-435, 18.1 µM (inactive); with CCRF-CEM, 24.8 µM (inactive). For the same compound, the GI50 was 36.1 µM (inactive) with U-251; 29.2 µM (inactive) in the test with HT-29; 9.18 µM (inactive) in the test with T47D; 29 µM (inactive) in the test with DU-145; 45.9 µM (inactive) in the test on HOP-92.
As for `CCOP(=O)(CCCC(O)CNc1nc(N)nc(Cl)c1/N=N/c1ccc(Cl)cc1)OCC` (configuration not stated), the GI50 was 2.59 µM (inactive) in the test on MDA-MB-231; 7.46 µM (inactive) with SF-295; 5.15 µM (inactive) with SN12C; 10.6 µM (inactive) in the test with SNB-19; 6.28 µM (inactive) in the test with BT-549; 4.85 µM (inactive) in the test on Hs-578T. The GI50 in the test on 786-0 was 5.27 µM (inactive); with UACC-62, 5.13 µM (inactive); in the test on K562, 4.63 µM (inactive); in the test with SNB-75, 3.29 µM (inactive); with MDA-MB-435, 5.85 µM (inactive); with CCRF-CEM, 3.21 µM (inactive). For the same compound, the GI50 in the test with U-251 is 8.57 µM (inactive); with HT-29 it was 9.73 µM (inactive); in the test with T47D it was 5.09 µM (inactive); in the test with DU-145 it was 6.14 µM (inactive); with HOP-92, 5.6 µM (inactive).
On to `COC1=CC(=O)c2ccccc2C1(CCC=C(C)C)C1=NC(C)(C)CO1` (configuration not stated), for which the GI50 in the test with SF-295 is 55.5 µM (inactive); with SN12C it was 94.6 µM (inactive); in the test with SNB-19 it was 84.9 µM (inactive); with 786-0 it was > 100 µM (inactive); in the test with UACC-62, > 100 µM (inactive); in the test on K562, 28.4 µM (inactive). Further, the GI50 in the test with SNB-75 is > 100 µM (inactive); in the test with CCRF-CEM, 28.6 µM (inactive); with U-251, 80.4 µM (inactive); with HT-29, 81.8 µM (inactive); in the test with LXFL 529, 50.7 µM (inactive); in the test with HOP-92, 99.3 µM (inactive).
Take `CCC1=CCN(c2cc(C)ccn2)OC1c1ccc(OC)cc1` (configuration not stated): the GI50 in the test on SF-295 was 22.2 µM (inactive); with SN12C, 26 µM (inactive); with SNB-19, 46.1 µM (inactive); with 786-0 it was 34.8 µM (inactive); in the test with UACC-62, 29.4 µM (inactive); with K562 it was 34 µM (inactive). In addition, the GI50 with SNB-75 was 33.7 µM (inactive); in the test on CCRF-CEM, 23.7 µM (inactive); with U-251 it was 21.5 µM (inactive); in the test on HT-29 it was 21.6 µM (inactive); with LXFL 529, 28.6 µM (inactive).
`Cc1ccc2c(c1)/C(=N/Nc1ccccc1[N+](=O)[O-])C(=O)N2`: the GI50 in the test with MDA-MB-231 is 1.61 µM (inactive); with SF-295 it was 14.5 µM (inactive); in the test with SN12C, 3.82 µM (inactive); in the test on SNB-19, 37.2 µM (inactive); in the test on BT-549, 45.8 µM (inactive); with Hs-578T, 3.93 µM (inactive). Also, the GI50 was 2.11 µM (inactive) with 786-0; 35.5 µM (inactive) with UACC-62; 27.9 µM (inactive) in the test on K562; 5.33 µM (inactive) with SNB-75; > 100 µM (inactive) in the test with MDA-MB-435; 87.1 µM (inactive) in the test with CCRF-CEM. The GI50 with U-251 is 4.07 µM (inactive); with HT-29, 31.6 µM (inactive); in the test with T47D, 2.83 µM (inactive); in the test with DU-145 it was 25 µM (inactive); in the test on HOP-92, 2.92 µM (inactive).
In the case of `CC(C)=CCC/C(C)=C/CC/C(C)=C/CC/C(=C/CC/C(C)=C\CC/C(C)=C/CC/C(C)=C/CC/C(C)=C/Cc1cc(O)ccc1O)CO`, the GI50 is 27.3 µM (inactive) in the test with MDA-MB-231; 1.84 µM (inactive) with SF-295; 17.6 µM (inactive) with SN12C; 7.1 µM (inactive) with SNB-19; 3.6 µM (inactive) in the test with BT-549; 2.51 µM (inactive) in the test on Hs-578T. Moreover, the GI50 in the test on 786-0 is 2.98 µM (inactive); in the test with UACC-62 it was 1.18 µM (inactive); in the test with K562, 17.7 µM (inactive); in the test with SNB-75, 4.02 µM (inactive); with MDA-MB-435, 1.12 µM (active); with CCRF-CEM, 3.56 µM (inactive). For the same compound, the GI50 in the test on U-251 is 3.08 µM (inactive); in the test on HT-29 it was 4.52 µM (inactive); in the test on T47D, 6.05 µM (inactive); in the test on DU-145, 32.6 µM (inactive); with HOP-92 it was 9.59 µM (inactive).
For the compound `O=C(O)Cc1cccc2c(=O)c3cccc([N+](=O)[O-])c3[nH]c12`, the GI50 in the test on MDA-MB-231 is > 100 µM (inactive); in the test on SF-295, > 100 µM (inactive); in the test on SN12C, 99.1 µM (inactive); in the test on SNB-19, 43.3 µM (inactive); with BT-549, 27 µM (inactive); in the test on Hs-578T it was 36 µM (inactive). Further, the GI50 in the test on 786-0 was > 100 µM (inactive); with UACC-62, 25 µM (inactive); in the test on K562 it was > 100 µM (inactive); in the test with SNB-75, 24.2 µM (inactive); in the test on MDA-MB-435 it was > 100 µM (inactive); in the test with CCRF-CEM it was > 100 µM (inactive). The GI50 in the test on U-251 is 38.9 µM (inactive); with HT-29 it was > 100 µM (inactive); in the test with T47D, > 100 µM (inactive); with DU-145 it was 58.5 µM (inactive); with HOP-92, > 100 µM (inactive).
